Experiment [1] is described as follows: Inhibition of reverse transcriptase L100I mutant in HIV-1 3B infected in human MT4 cells assessed as reduction in virus-induced cytopathic effect incubated for 5 days by MTT assay.
A short description of experiment [2]: Inhibition of reverse transcriptase Y181C mutant in HIV-1 3B infected in human MT4 cells assessed as reduction in virus-induced cytopathic effect incubated for 5 days by MTT assay.
Experiment [3] in a line: Inhibition of reverse transcriptase Y188L mutant in HIV-1 3B infected in human MT4 cells assessed as reduction in virus-induced cytopathic effect incubated for 5 days by MTT assay.
Experiment [4] can be described thus: Inhibition of reverse transcriptase E138K mutant in HIV-1 3B infected in human MT4 cells assessed as reduction in virus-induced cytopathic effect incubated for 5 days by MTT assay.
A short description of experiment [5]: Inhibition of reverse transcriptase K103N mutant in HIV-1 3B infected in human MT4 cells assessed as reduction in virus-induced cytopathic effect incubated for 5 days by MTT assay.

The values that follow come from BindingDB's records for doi:10.1016/j.ejmech.2020.112549 (Sichuan University, 2020).

Turning to `N#Cc1ccc(Nc2nccc(C(O)c3ccc(-c4ccc(C#N)cc4)cc3C(F)(F)F)n2)cc1` (configuration not stated), the EC50 in experiment [1] was 212 nM; in experiment [2], 59 nM; in experiment [3], 552 nM; in experiment [4], 26 nM; in experiment [5] it was 26 nM.

Turning to `N#Cc1ccc(Nc2nccc(C(O)c3ccc(-c4ccc(C#N)cc4)cc3Cl)n2)cc1` (configuration not stated), the EC50 amounted to 91 nM in experiment [1]; 14 nM in experiment [2]; 297 nM in experiment [3]; 7.3 nM in experiment [4]; 5.9 nM in experiment [5].

Regarding `N#Cc1ccc(Nc2nccc([C@@H](O)c3ccc(-c4ccc(C#N)cc4)cc3F)n2)cc1`, the EC50 in experiment [1] is 380 nM; in experiment [2], 78 nM; in experiment [4], 9.3 nM; in experiment [5] it was 50 nM.

Take `N#Cc1ccc(Nc2nccc(C(O)c3ccc(-c4ccc(C#N)cc4)cc3F)n2)cc1` (configuration not stated): the EC50 in experiment [1] turned out to be 902 nM; in experiment [2], 112 nM; in experiment [3], 4180 nM; in experiment [4], 29 nM; in experiment [5] it was 88 nM.

As for `COc1cc(-c2ccc(C#N)cc2)ccc1[C@@H](O)c1ccnc(Nc2ccc(C#N)cc2)n1`, the EC50 in experiment [1] turned out to be 1250 nM; in experiment [2], 507 nM; in experiment [4], 196 nM; in experiment [5], 438 nM.

As for `COc1cc(-c2ccc(C#N)cc2)ccc1C(O)c1ccnc(Nc2ccc(C#N)cc2)n1` (configuration not stated), the EC50 was determined as 113 nM in experiment [1], 32 nM in experiment [2] and 7.4 nM in experiment [4].

`N#Cc1ccc(Nc2nccc([C@H](O)c3c(F)cc(-c4ccc(C#N)cc4)cc3F)n2)cc1`: the EC50 in experiment [1] was 1430 nM; in experiment [2] it was 432 nM; in experiment [3], 5940 nM; in experiment [4], 55 nM; in experiment [5] it was 364 nM.

As to `N#Cc1ccc(Nc2nccc([C@@H](O)c3c(F)cc(-c4ccc(C#N)cc4)cc3F)n2)cc1`, the EC50 is 341 nM in experiment [1]; 89 nM in experiment [2]; 2250 nM in experiment [3]; 8.4 nM in experiment [4]; 36 nM in experiment [5].

Turning to `Cc1cc(-c2ccc(C#N)cc2)ccc1[C@H](O)c1ccnc(Nc2ccc(C#N)cc2)n1`, the EC50 in experiment [1] turned out to be 81 nM; in experiment [2] it was 19 nM; in experiment [3] it was 264 nM; in experiment [4], 5.5 nM; in experiment [5], 8.6 nM.

Consider `COc1cc(-c2ccc(C#N)cc2)ccc1[C@H](O)c1ccnc(Nc2ccc(C#N)cc2)n1`, for which the EC50 turned out to be 67 nM in experiment [1], 15 nM in experiment [2], 88 nM in experiment [3] and 6.7 nM in experiment [5].

In the case of `Cc1cc(-c2ccc(C#N)cc2)cc(C)c1[C@@H](O)c1ccnc(Nc2ccc(C#N)cc2)n1`, the EC50 stood at 165 nM in experiment [1]; 46 nM in experiment [2]; 2200 nM in experiment [3]; 19 nM in experiment [4]; 21 nM in experiment [5].

For `N#Cc1ccc(Nc2nccc([C@H](O)c3ccc(-c4ccc(C#N)cc4)cc3F)n2)cc1`, the EC50 in experiment [1] is 3630 nM; in experiment [2], 1160 nM; in experiment [3] it was greater than 30000 nM; in experiment [4] it was 164 nM; in experiment [5], 736 nM.

Regarding `N#Cc1ccc(Nc2nccc([C@H](O)c3ccc(-c4ccc(C#N)cc4)cc3Cl)n2)cc1`, the EC50 was determined as 1580 nM in experiment [1], 799 nM in experiment [2], 206 nM in experiment [4] and 251 nM in experiment [5].

As to `N#Cc1ccc(Nc2nccc(C(O)c3c(F)cc(-c4ccc(C#N)cc4)cc3F)n2)cc1` (configuration not stated), the EC50 came out at 410 nM in experiment [1]; 125 nM in experiment [2]; 3500 nM in experiment [3]; 25 nM in experiment [4]; 61 nM in experiment [5].

On to `Cc1cc(-c2ccc(C#N)cc2)ccc1C(O)c1ccnc(Nc2ccc(C#N)cc2)n1` (configuration not stated), for which the EC50 in experiment [1] was 184 nM; in experiment [2] it was 31 nM; in experiment [3] it was 623 nM; in experiment [4] it was 9.8 nM; in experiment [5] it was 18 nM.

For the compound `N#Cc1ccc(Nc2nccc([C@@H](O)c3ccc(-c4ccc(C#N)cc4)cc3Cl)n2)cc1`, the EC50 came to 53 nM in experiment [1]; 14 nM in experiment [2]; 128 nM in experiment [3]; 3 nM in experiment [4]; 3.2 nM in experiment [5].

Regarding `N#Cc1ccc(Nc2nccc([C@@H](O)c3ccc(-c4ccc(C#N)cc4)cc3C(F)(F)F)n2)cc1`, the EC50 in experiment [1] worked out at 93 nM; in experiment [2], 30 nM; in experiment [3], 318 nM; in experiment [4], 9.1 nM; in experiment [5], 15 nM.

As for `Cc1cc(-c2ccc(C#N)cc2)cc(C)c1[C@H](O)c1ccnc(Nc2ccc(C#N)cc2)n1`, the EC50 is 20 nM in experiment [1], 7.4 nM in experiment [2], 7.2 nM in experiment [4] and 3.9 nM in experiment [5].

Regarding `Cc1cc(-c2ccc(C#N)cc2)cc(C)c1C(O)c1ccnc(Nc2ccc(C#N)cc2)n1` (configuration not stated), the EC50 in experiment [1] turned out to be 49 nM; in experiment [2], 23 nM; in experiment [3], 417 nM; in experiment [4] it was 16 nM; in experiment [5] it was 7 nM.

In the case of `Cc1cc(-c2ccc(C#N)cc2)ccc1[C@@H](O)c1ccnc(Nc2ccc(C#N)cc2)n1`, the EC50 in experiment [1] came out at 2640 nM; in experiment [2] it was 743 nM; in experiment [4], 149 nM; in experiment [5] it was 479 nM.

Consider `N#Cc1ccc(Nc2nccc([C@H](O)c3ccc(-c4ccc(C#N)cc4)cc3C(F)(F)F)n2)cc1`, for which the half-maximal effective concentration (EC50) is 1740 nM in experiment [1]; 1820 nM in experiment [2]; greater than 24100 nM in experiment [3]; 933 nM in experiment [4]; 1910 nM in experiment [5].
